The results in this text go back to patent US6342508B1, “N-hydroxy-2-(Alkyl,Aryl or Heteroaryl sulfanyl, sulfinyl or sulfonyl) 3-substituted alkyl, aryl or heteroarylamides as matrix metalloproteinase inhibitors” (American Cyanamid Company, priority 1997, dated 2002).

The target in one data set is T1, TACE (Homo sapiens, UniProt P78536).
T1 construct: purchased Immunex
T1 sequence (P78536 215-824): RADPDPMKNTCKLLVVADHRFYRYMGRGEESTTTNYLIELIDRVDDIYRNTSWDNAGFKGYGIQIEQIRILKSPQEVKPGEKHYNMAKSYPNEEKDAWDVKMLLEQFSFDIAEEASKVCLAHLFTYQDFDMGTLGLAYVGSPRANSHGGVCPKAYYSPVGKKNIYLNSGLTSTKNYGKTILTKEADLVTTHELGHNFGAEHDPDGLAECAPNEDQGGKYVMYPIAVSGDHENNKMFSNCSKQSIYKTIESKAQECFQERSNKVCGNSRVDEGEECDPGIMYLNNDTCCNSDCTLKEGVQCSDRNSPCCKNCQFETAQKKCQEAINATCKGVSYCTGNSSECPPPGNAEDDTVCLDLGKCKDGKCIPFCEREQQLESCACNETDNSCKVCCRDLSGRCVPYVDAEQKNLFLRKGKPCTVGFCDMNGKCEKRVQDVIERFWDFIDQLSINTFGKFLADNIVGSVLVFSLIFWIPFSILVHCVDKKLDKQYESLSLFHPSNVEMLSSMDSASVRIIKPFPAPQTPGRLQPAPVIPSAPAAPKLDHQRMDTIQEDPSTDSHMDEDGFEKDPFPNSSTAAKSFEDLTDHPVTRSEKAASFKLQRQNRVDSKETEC
Description: Procedure for Measuring TACE Inhibition (fluorescent peptidyl substrate). Type of data set: biochemical. Particulars: 1 mM. The protocol: Using 96-well black microtiter plates, each well recieves a solution composed of 10 μL TACE (Immunex, final concentration 1 μg/mL), 70 μL Tris buffer, pH 7.4 containing 10% glycerol (final concentration 10 mM), and 10 μL of test compound solution in DMSO (final concentration, DMSO concentration <1%) and incubated for 10 minutes at room temperature. The reaction is initiated by addition of a fluorescent peptidyl substrate (final concentration 100 μM) to each well and then shaking on a shaker for 5 sec. The reaction is read (excitation 340 nm, emission 420 nm) for 10 min. and the increase in fluorescence over time is plotted as a linear line. The slope of the line is calculated and represents the reaction rate. […] The mean (x±sem) of the control rate is calculated and compared for statistical significance (p<0.05) with drug-treated rates using Dunnett's multiple comparison test.
As to “3-(1-Hydroxycarbamoyl-heptylsulfinyl)-benzoicacid hydroxyamide [Example 188]”, the “TACE % inhibition at 1 mM” value is 16.2%.

For `CCCCCCC(Sc1ccc(OCCCC)cc1)C(=O)NO` (stereo not drawn) [Example 200, 2-(4-Butoxy-benzenesulfanyl)-octanoic acid hydroxyamide], the “TACE % inhibition at 1 mM” value came out at 37.9%.

Turning to `CCCCCCC(Sc1ccc(OCCN2CCNCC2)cc1)C(=O)NO` (stereo not drawn) [Example 201, 2-[4-(2-Piperazine-1-yl-ethoxy)-benzenesulfanyl]-octanoic acid hydroxyamide], the “TACE % inhibition at 1 mM” value amounted to 50.9%.

`CCCCCCC(Sc1ccc(NS(=O)(=O)CC)cc1)C(=O)NO` (stereo not drawn) [Example 234, Ethanesulfonic acid 4(1-hydroxycarbamoyl-heptylsulfanyl)-hydroxyamide]: the “TACE % inhibition at 1 mM” value was found to be 18.4%.

For the compound `CCCCCCC(C(=O)NO)[S+]([O-])c1ccc(NS(=O)(=O)c2cc(Cl)sc2Cl)cc1` (stereo not drawn) [Example 236, 2,5-Dichloro-thiophene-3-sulfonic acid 4-(1-hydroxycarbamoyl-heptylsulfinyl)-hydroxyamide], the “TACE % inhibition at 1 mM” value is given as 35%.

With “(1-Hydroxycarbamoyl-propane-1-sulfanyl)-propionic acid hydroxyamide [Example 122]”, the “TACE % inhibition at 1 mM” value is 3.1%.

Turning to “(1-Hydroxycarbamoyl-propane-1-sulfinyl)-acetic acid hydroxy amide [Example 121]”, the “TACE % inhibition at 1 mM” value came to 6.1%.

With “(1-Hydroxycarbamoyl-propane-1-sulfonyl)-acetic acid hydroxyamide [Example 120]”, the “TACE % inhibition at 1 mM” value was 19.9%.

The data set is the same for the next values; noted with them: read-out: TACE IC 50.
In the case of `COc1ccc(S(=O)(=O)C(CC=C(C)C)(Cc2ccc(OCCN3CCOCC3)cc2)C(=O)NO)cc1` (stereo not drawn) [Example 24, 2-(4-Methoxy-benzenesulfonyl)-5-methyl-2-[4-(2-morpholin-4-yl-ethoxy)-benzyl]-hex-4-enoic acid hydroxyamide], the IC50 was determined as 47.5 nM.

On to `COc1ccc(S(=O)(=O)C(C/C=C(\C)CCC=C(C)C)(Cc2ccc(OCCN3CCOCC3)cc2)C(=O)NO)cc1` (stereo not drawn) [Example 26, (4E)-2-(4-Methoxy-benzenesulfonyl)-5,9 dimethyl-2-(4-(2-morpholin-4-yl-ethoxy)-benzyl]-deca-4,8-dienoic acid hydroxyamide], for which the IC50 came to 34.6 nM.

As to `CCCCCCC(Sc1nccn1C)C(=O)NO` (stereo not drawn) [Example 39, 2-(1-methyl-1H-imidazol-2-ylsulfanyl)-octanoic acid hydroxyamide], the IC50 was 69.4 nM.

As for `CC(C)=CCC(CC=C(C)C)(C(=O)NO)S(=O)(=O)c1ccc(C)cc1` [Example 42, 5-Methyl-2-(3-methyl-but-2-enyl)-2-(toluene-4-sulfonyl)-hex-4-enoic acid hydroxyamide], the IC50 came out at 36.5 nM.

With `COc1ccc(S(=O)(=O)C2(C(=O)NO)CCN(Cc3ccc(Br)cc3)CC2)cc1` [Example 90, 1-(4Bromo-benzyl)-4-(4-methoxy-benzenesulfonyl)-piperidine-4-carboxylic acid hydroxyamide], the IC50 amounted to 71.9 nM.

On to `COc1ccc(S(=O)(=O)C2(C(=O)NO)CCN(C(C)(C)C)CC2)cc1` [Example 92, 1-Tert-butyl-4-(4-methoxy-benzenesulfonyl)-piperidine-4-carboxylic acid hydroxyamide], for which the IC50 was 9.7 nM.

For the compound `COc1ccc(S(=O)(=O)C2(C(=O)NO)CCN(C3CCCCCCC3)CC2)cc1` [Example 94, 1-Cyclooctyl-4-(4-methoxy-benzenesulfonyl)-piperidine-4-carboxylic acid hydroxyamide], the IC50 was determined as 22.9 nM.

As for `COc1ccc(S(=O)(=O)C2(C(=O)NO)CCN(C(C)C)CC2)cc1` [Example 96, 1-Isopropyl-4-(4-methoxy-benzenesulfonyl)-piperidine-4-carboxylic acid hydroxyamide], the IC50 came out at 18.1 nM.

Staying with this data set, now noted: solid phase compounds table.
The compound `CCCCCCC(C(=O)NO)S(=O)(=O)c1ccc(OS(=O)(=O)c2ccccc2[N+](=O)[O-])cc1` (stereo not drawn) [Example 238, 2-Nitro-benzenesulfonic acid 4-(1-hydroxycarbamoyl-heptylsulfonyl)-hydroxyamide] came in with an IC50 of 930 nM.

The next data set has as its target MMP 13 (Homo sapiens, UniProt P45452). Put plainly: MMP 13 inhibition (HTS). The note with it: 0.2 μM. Type of data set: biochemical.
Turning to `COC(=O)CCC(Sc1ccc(SC)cc1)C(=O)NO` (stereo not drawn) [Example 131, 4-Hydroxycarbamoyl-4-(4-methanesulfanyl-phenylsulfanyl)-butyric acid methyl ester], the “MMP 13 % inhibition at 0.2 μM (HTS)” value came to 71%.

With `CCCCCCCCC(Sc1cccc(OC)c1)C(=O)NO` (stereo not drawn) [Example 140, 2-(3-methoxy-benzenesulfanyl)decanoic acid hydroxamide], the “MMP 13 % inhibition at 0.2 μM (HTS)” value came to 29%.

On to `CCCCCCCCC(C(=O)NO)[S+]([O-])c1cccc(OC)c1` (stereo not drawn) [Example 141, 2-(3-Methoxy-benzenesulfinyl)decanoic acid hydroxamide], for which the “MMP 13 % inhibition at 0.2 μM (HTS)” value is 32%.

Turning to `CCCCCCCCC(C(=O)NO)S(=O)(=O)c1cccc(OC)c1` (stereo not drawn) [Example 142, 2-(3-Methoxy-benzenesulfonyl)decanoic acid hydroxamide], the “MMP 13 % inhibition at 0.2 μM (HTS)” value came to 69%.

Tested on in the next data set: not given
Experiment: not given
Settings: not given
Consider `CCCCCCC(Sc1nccn1C)C(=O)NO` (stereo not drawn) [Example 39, 2-(1-methyl-1H-imidazol-2-ylsulfanyl)-octanoic acid hydroxyamide], for which the melting point amounted to 125 °C.

As to `CC(C)=CCC(CC=C(C)C)(C(=O)NO)S(=O)(=O)c1ccc(C)cc1` [Example 42, 5-Methyl-2-(3-methyl-but-2-enyl)-2-(toluene-4-sulfonyl)-hex-4-enoic acid hydroxyamide], the melting point was in the range of 108 to 110 °C.

On to `C#CCC(Cc1cccnc1)(C(=O)NO)S(=O)(=O)c1ccc(OC)cc1` (stereo not drawn) [Example 75, 2-(4-Methoxy-benzenesulfonyl)-2-pyridin-3-ylmethyl-pent-4-ynoic acid hydroxyamide], for which the melting point lay in the range of 119 to 121 °C.

In turn, `CC#CCC(CC#CC)(C(=O)NO)S(=O)(=O)c1ccc(F)cc1` [Example 78, 2-(4-Fluoro-benzenesulfonyl)-2-but-2-ynyl-hex-4-ynoic acid hydroxyamide] yielded a melting point of 161 to 163 °C.

Consider `COc1ccc(S(=O)(=O)C(CC=C(C)C)(CC=C(C)C)C(=O)NO)cc1` [Example 79, 2-(4-Methoxy-benzenesulfonyl)-5-methyl-2-(3-methyl-but-2-enyl)-hex-4-enoic acid hydroxyamide], for which the melting point lay within 93 to 96 °C.

On to `CCCCCC(Sc1ccc(OC)cc1)C(=O)NO` (stereo not drawn) [Example 80, 2-(4methoxy-phenylsulfanyl)-heptanoic acid hydroxyamide], for which the melting point was in the range of 90 to 95 °C.

`COc1ccc(S(=O)(=O)C2(C(=O)NO)CCN(Cc3cccc(OC)c3)CC2)cc1` [Example 84, 4-(4-methoxy-benzenesulfonyl)-1-(3-methoxy-benzyl)-piperidine-4-carboxylic acid hydroxyamide]: the melting point is 130 °C.

`COc1ccc(S(=O)(=O)C2(C(=O)NO)CCN(Cc3ccc(Cl)c(Cl)c3)CC2)cc1` [Example 85, 1-(3,4-dichlorobenzyl)-4-(4-methoxy-benzenesulfonyl)-piperidine-4-carboxylic acid hydroxamide] gave a melting point of 192 to 195 °C.

`COc1ccc(S(=O)(=O)C2(C(=O)NO)CCN(Cc3ccc(C)cc3)CC2)cc1` [Example 86, 4-(4-methoxy-benzenesulfonyl)-1-(4-methylbenzyl)-piperidine-4-carboxylic acid hydroxamide]: the melting point lay in the range of 176 to 177 °C.

In the case of `COc1ccc(S(=O)(=O)C2(C(=O)NO)CCN(Cc3ccc(Br)cc3)CC2)cc1` [Example 90, 1-(4Bromo-benzyl)-4-(4-methoxy-benzenesulfonyl)-piperidine-4-carboxylic acid hydroxyamide], the melting point is 180 °C.

`COc1ccc(S(=O)(=O)C2(C(=O)NO)CCN(CCCc3ccccc3)CC2)cc1` [Example 91, 4-(4-methoxy-benzenesulfonyl)-1-(3-phenyl-propyl)-piperidine-4-carboxylic acid hydroxyamide] gave a melting point of 143 °C.

On to `COc1ccc(S(=O)(=O)C2(C(=O)NO)CCN(C(C)(C)C)CC2)cc1` [Example 92, 1-Tert-butyl-4-(4-methoxy-benzenesulfonyl)-piperidine-4-carboxylic acid hydroxyamide], for which the melting point was found to be 40 °C.

Turning to `CCCCN1CCC(C(=O)NO)(S(=O)(=O)c2ccc(OC)cc2)CC1` [Example 93, 1-Butyl-4-(4-methoxy-benzenesulfonyl)-piperidine-4-carboxylic acid hydroxyamide], the melting point was found to be 75 °C.

As for `COc1ccc(S(=O)(=O)C2(C(=O)NO)CCN(C3CCCCCCC3)CC2)cc1` [Example 94, 1-Cyclooctyl-4-(4-methoxy-benzenesulfonyl)-piperidine-4-carboxylic acid hydroxyamide], the melting point is > 200 °C.

As for `CCN1CCC(C(=O)NO)(S(=O)(=O)c2ccc(OC)cc2)CC1` [Example 95, 1-Ethyl-4-(4-methoxy-benzenesulfonyl)-piperidine-4-carboxylic acid hydroxyamide], the melting point came to 85 °C.

Regarding `COc1ccc(S(=O)(=O)C2(C(=O)NO)CCN(C(C)C)CC2)cc1` [Example 96, 1-Isopropyl-4-(4-methoxy-benzenesulfonyl)-piperidine-4-carboxylic acid hydroxyamide], the melting point was 75 °C.

Regarding `COc1ccc(S(=O)(=O)C2(C(=O)NO)CCN(C)CC2)cc1` [Example 97, 1-Methyl-4-(4-methoxy-benzenesulfonyl)-piperidine-4-carboxylic acid hydroxyamide], the melting point was 89 °C.

`CCCCOc1ccc(S(=O)(=O)C2(C(=O)NO)CCN(Cc3ccccc3)CC2)cc1` [Example 98, 1-Benzyl-4-(4-butoxy-benzenesulfonyl)-piperidine-4-carboxylic acid hydroxyamide]: the melting point turned out to be 144 °C.

`CCCCOc1ccc(S(=O)(=O)C2(C(=O)NO)CCN(Cc3ccc(F)cc3)CC2)cc1` [Example 100, 1-(4-Fluoro-benzyl)-4-(4-butoxy-benzenesulfonyl)-piperidine-4-carboxylic acid hydroxyamide] returned a melting point of 112 °C.

Turning to `COc1ccc(S(=O)(=O)C2(C(=O)NO)CCN(CCCOc3ccccc3)CC2)cc1` [Example 105, 4-(4-Methoxy-benzenesulfonyl)-1-(3-phenoxy-propyl)-piperidine-4-carboxylic acid hydroxyamide], the melting point is 101 °C.

As to `CCCCOc1ccc(S(=O)(=O)C2(C(=O)NO)CCN(CCCOc3ccccc3)CC2)cc1` [Example 106, 4-(4-n-Butoxy-benzenesulfonyl)-1-(3-phenoxy-propyl)-piperidine-4-carboxylic acid hydroxyamide], the melting point turned out to be 84 °C.

The melting point is the temperature, or range, at which the solid turns liquid.
